Here are results for 24 compounds from BindingDB's records for doi:10.1021/jm801063n (University of Auckland, 2009).

SMILES strings stand for the structures. pIC50: −log10 of the molar value. Some results are limits rather than exact numbers.

The experiment is described as follows: Inhibition of recombinant perforin-mediated lysis of human Jurkat T cells by 51Cr release assay.

For `Cc1cc2c(c(=S)[nH]1)C(=O)O/C2=C\c1ccc(-c2ccccc2)cc1` [(Z)-1-(Biphenyl-4-ylmethylene)-6-methyl-4-thioxo-4,5-dihydrofuro[3,4-c]pyridin-3(1H)-one], the pIC50 was < 4.70.

As for `Cc1cc2c(c(=S)[nH]1)C(=O)O/C2=C\c1ccco1` [(Z)-1-(Furan-2-ylmethylene)-6-methyl-4-thioxo-4,5-dihydrofuro[3,4-c]pyridin-3(1H)-one], the pIC50 is 5.36.

In the case of `Cc1cc2c(c(=S)[nH]1)C(=O)O/C2=C\c1ccoc1` [(Z)-1-(Furan-3-ylmethylene)-6-methyl-4-thioxo-4,5-dihydrofuro[3,4-c]pyridin-3(1H)-one], the pIC50 was < 4.70.

`Cc1cc2c(c(=S)[nH]1)C(=O)O/C2=C\c1ccccc1` [(Z)-1-Benzylidene-6-methyl-4-thioxo-4,5-dihydrofuro[3,4-c]pyridin-3(1H)-one]: the pIC50 is < 4.70.

For `COc1cccc2scc(/C=C3\OC(=O)c4c3cc(C)[nH]c4=S)c12` [(Z)-1-[(4-Methoxy-1-benzothien-3-yl)methylene]-6-methyl-4-thioxo-4,5-dihydrofuro[3,4-c]pyridine-3(1H)-one], the pIC50 was 5.42.

For the compound `CSc1ccc(/C=C2\OC(=O)c3c2cc(C)[nH]c3=S)cc1` [(Z)-6-Methyl-1-(4-(methylthio)benzylidene)-4-thioxo-4,5-dihydrofuro[3,4-c]pyridin-3(1H)-one], the pIC50 was < 4.70.

For `Cc1ccc(/C=C2\OC(=O)c3c2cc(C)[nH]c3=S)cc1` [(Z)-6-Methyl-1-(4-methylbenzylidene)-4-thioxo-4,5-dihydrofuro[3,4-c]pyridin-3(1H)-one], the pIC50 was < 4.70.

As to `Cc1cc2c(c(=S)[nH]1)C(=O)O/C2=C\c1cc2ccccc2n1C` [(Z)-6-Methyl-1-((1-methyl-1H-indol-2-yl)methylene)-4-thioxo-4,5-dihydrofuro[3,4-c]pyridin-3(1H)-one], the pIC50 was < 4.70.

As to `Cc1cc2c(c(=S)[nH]1)C(=O)O/C2=C\c1cn(C)c2ccccc12` [(Z)-6-Methyl-1-((1-methyl-1H-indol-3-yl)methylene)-4-thioxo-4,5-dihydrofuro[3,4-c]pyridin-3(1H)-one], the pIC50 is 5.37.

`Cc1cc2c(c(=O)[nH]1)C(=O)O/C2=C\c1cn(C)c2ccccc12` [(Z)-6-Methyl-1-((1-methyl-1H-indol-3-yl)methylene)furo[3,4-c]pyridine-3,4(1H,5H)-dione]: the pIC50 was < 4.70.

Take `Cc1cc2c(c(=S)[nH]1)C(=O)O/C2=C\c1cccn1C` [(Z)-6-Methyl-1-((1-methyl-1H-pyrrol-2-yl)methylene)-4-thioxo-a4,5-dihydrofuro[3,4-c]pyridin-3(1H)-one]: the pIC50 was < 4.70.

Regarding `Cc1cc2c(c(=O)[nH]1)C(=O)N/C2=C\c1ccc(C)o1` [(Z)-6-Methyl-1-((5-methylfuran-2-yl)methylene)-1H-pyrrolo[3,4-c]pyridine-3,4(2H,5H)-dione], the pIC50 was < 4.70.

`Cc1cc2c(c(=O)[nH]1)C(=O)O/C2=C\c1ccc(C)o1` [(Z)-6-Methyl-1-((5-methylfuran-2-yl)methylene)furo[3,4-c]pyridine-3,4(1H,5H)-dione]: the pIC50 was < 4.70.

With `Cc1cc2c(c(=S)[nH]1)C(=O)O/C2=C\c1ccc(C)s1` [(Z)-6-Methyl-1-((5-methylthiophen-2-yl)methylene)-4-thioxo-4,5-dihydrofuro[3,4-c]pyridin-3(1H)-one], the pIC50 is 5.14.

On to `Cc1cc2c(c(=S)[nH]1)C(=O)O/C2=C\c1ccc(-c2ccccc2)o1` [(Z)-6-Methyl-1-((5-phenylfuran-2-yl)methylene)-4-thioxo-4,5-dihydrofuro[3,4-c]pyridin-3(1H)-one], for which the pIC50 is 5.40.

For `Cc1cc2c(c(=O)[nH]1)C(=O)N/C2=C\c1ccc(-c2ccccc2)s1` [(Z)-6-Methyl-1-((5-phenylthiophen-2-yl)methylene)-1H-pyrrolo[3,4-c]pyridine-3,4(2H,5H)-dione], the pIC50 was < 4.70.

Regarding `Cc1cc2c(c(=S)[nH]1)C(=O)O/C2=C\c1ccc(-c2ccccc2)s1` [(Z)-6-Methyl-1-((5-phenylthiophen-2-yl)methylene)-4-thioxo-4,5-dihydrofuro[3,4-c]pyridin-3(1H)-one], the pIC50 was 5.47.

As to `Cc1cc2c(c(=O)[nH]1)C(=O)O/C2=C\c1ccc(-c2ccccc2)s1` [(Z)-6-Methyl-1-((5-phenylthiophen-2-yl)methylene)furo[3,4-c]pyridine-3,4(1H,5H)-dione], the pIC50 is 5.30.

Turning to `Cc1cc2c(c(=S)[nH]1)C(=O)O/C2=C\c1csc(-c2ccccc2)c1` [(Z)-6-Methyl-1-((5-phenylthiophen-3-yl)methylene)-4-thioxo-4,5-dihydrofuro[3,4-c]pyridin-3(1H)-one], the pIC50 is < 4.70.

As to `Cc1cc2c(c(=S)[nH]1)C(=O)O/C2=C\c1cccs1` [(Z)-6-Methyl-1-(thiophen-2-ylmethylene)-4-thioxo-4,5-dihydrofuro[3,4-c]pyridin-3(1H)-one], the pIC50 is 5.07.

Take `Cc1cc2c(c(=S)[nH]1)C(=O)O/C2=C\c1ccsc1` [(Z)-6-Methyl-1-(thiophen-3-ylmethylene)-4-thioxo-4,5-dihydrofuro[3,4-c]pyridin-3(1H)-one]: the pIC50 was < 4.70.

`Cc1cc2c(c(=S)[nH]1)C(=O)O/C2=C\c1ccc(OC(F)(F)F)cc1` [(Z)-6-Methyl-4-thioxo-1-(4-(trifluoromethoxy)benzylidene)-4,5-dihydrofuro[3,4-c]pyridin-3(1H)-one]: the pIC50 is < 4.70.

With `Cc1cc2c(c(=S)[nH]1)C(=O)O/C2=C\c1ccc(C(F)(F)F)cc1` [(Z)-6-Methyl-4-thioxo-1-(4-(trifluoromethyl)benzylidene)-4,5-dihydrofuro[3,4-c]pyridin-3(1H)-one], the pIC50 was < 4.70.

`CC(=O)Nc1ccc(/C=C2\OC(=O)c3c2cc(C)[nH]c3=S)cc1` [(Z)-N-(4-((6-Methyl-3-oxo-4-thioxo-4,5-dihydrofuro[3,4-c]pyridin-1(3H)-ylidene)methyl)phenyl)acetamide]: the pIC50 was < 4.70.

The term pIC50 denotes the IC50 on a negative log10 scale, so that one unit is a factor of ten.
